# According to patent publication US20240210412A1, “SULFONYL-TRIAZOLE COMPOUNDS USEFUL AS LIGANDS AND INHIBITORS OF PROSTAGLANDIN REDUCTASE 2” (University of Virginia Patent Foundation, priority 2021, published 2024):
# Legend:
# Test in all cases: SILAC LC-MS ABPP
# Type in all cases: cell-based
# Conditions in all cases: 25 μM 2 h, live DM93 cells
# P35269 = target: T1, P35269 (Homo sapiens, UniProt P35269)
# T1 construct: Probe-modified proteins from the soluble fraction were conjugated to a desthiobiotin-azide tag; endogenous in cells; host or cells: DM93 (SILAC)
# Method in brief: (§1)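 In DM93 melanoma cells, heavy SILAC cultures take 25 μM SuTEx compound for 2 h at 37 °C while light cultures take DMSO. Both then receive HHS-475 alkyne probe at 100 μM for 2 h; probe-modified peptides are quantified by LC-MS/MS.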
# O43390 = target: T2, O43390 (Homo sapiens, UniProt O43390)
# T2 construct: endogenous in cells; host or cells: DM93
# Method in brief: as §1
# Q9HCE5 = target: T3, Q9HCE5 (Homo sapiens, UniProt Q9HCE5)
# T3 construct: endogenous in cells; host or cells: DM93 cells (SILAC), treated live; soluble proteome analysed
# Method in brief: as §1
# Q9NVE7 = target: T4, Q9NVE7 (Homo sapiens, UniProt Q9NVE7)
# T4 construct: endogenous in cells; host or cells: DM93 cells (SILAC)
# Method in brief: as §1
# Q92804 = target: T5, Q92804 (Homo sapiens, UniProt Q92804)
# T5 construct: endogenous in cells; host or cells: DM93 cells (SILAC), live-cell treatment
# Method in brief: as §1
# Q9NV35 = target: T6, Q9NV35 (Homo sapiens, UniProt Q9NV35)
# T6 construct: endogenous in cells; host or cells: DM93 cells (SILAC), treated live; soluble proteome analysed
# Method in brief: as §1
# Q9Y2W1 = target: T7, Q9Y2W1 (Homo sapiens, UniProt Q9Y2W1)
# T7 construct: endogenous in cells; host or cells: DM93 cells (SILAC)
# Method in brief: as §1
# P46940 = target: T8, P46940 (Homo sapiens, UniProt P46940)
# T8 construct: endogenous in cells; host or cells: DM93 cells (SILAC)
# Method in brief: as §1
# Q86VS8 = target: T9, Q86VS8 (Homo sapiens, UniProt Q86VS8)
# T9 construct: endogenous in cells; host or cells: DM93 cells (SILAC), live-cell treatment
# Method in brief: as §1
# O43776 = target: T10, O43776 (Homo sapiens, UniProt O43776)
# T10 construct: endogenous in cells; host or cells: DM93
# Method in brief: as §1
# O94925 = target: T11, O94925 (Homo sapiens, UniProt O94925)
# T11 construct: endogenous in cells; host or cells: DM93 cells (SILAC)
# Method in brief: as §1
# P68371 = target: T12, P68371 (Homo sapiens, UniProt P68371)
# T12 construct: performing SuTEx compound screening directly in cells; endogenous in cells; host or cells: DM93 cells (SILAC)
# Method in brief: as §1
# Q969T9 = target: T13, Q969T9 (Homo sapiens, UniProt Q969T9)
# T13 construct: endogenous in cells; host or cells: DM93 cells (SILAC), live-cell treatment
# Method in brief: as §1
# Q92889 = target: T14, Q92889 (Homo sapiens, UniProt Q92889)
# T14 construct: endogenous in cells; host or cells: DM93 cells (SILAC), live-cell treatment
# Method in brief: as §1
# P06132 = target: T15, P06132 (Homo sapiens, UniProt P06132)
# T15 construct: endogenous in cells; host or cells: DM93 cells (SILAC)
# Method in brief: as §1
# O00571 = target: T16, O00571 (Homo sapiens, UniProt O00571)
# T16 construct: endogenous in cells; host or cells: DM93
# Method in brief: as §1
# Q14914 = target: T17, Q14914 (Homo sapiens, UniProt Q14914)
# T17 construct: performing SuTEx compound screening directly in cells; endogenous in cells; host or cells: DM93 cells (SILAC), soluble fraction
# Method in brief: as §1
# P55084 = target: T18, P55084 (Homo sapiens, UniProt P55084)
# T18 construct: endogenous in cells; host or cells: DM93 cells (SILAC)
# Method in brief: as §1
# T11 sequence (O94925 55-669): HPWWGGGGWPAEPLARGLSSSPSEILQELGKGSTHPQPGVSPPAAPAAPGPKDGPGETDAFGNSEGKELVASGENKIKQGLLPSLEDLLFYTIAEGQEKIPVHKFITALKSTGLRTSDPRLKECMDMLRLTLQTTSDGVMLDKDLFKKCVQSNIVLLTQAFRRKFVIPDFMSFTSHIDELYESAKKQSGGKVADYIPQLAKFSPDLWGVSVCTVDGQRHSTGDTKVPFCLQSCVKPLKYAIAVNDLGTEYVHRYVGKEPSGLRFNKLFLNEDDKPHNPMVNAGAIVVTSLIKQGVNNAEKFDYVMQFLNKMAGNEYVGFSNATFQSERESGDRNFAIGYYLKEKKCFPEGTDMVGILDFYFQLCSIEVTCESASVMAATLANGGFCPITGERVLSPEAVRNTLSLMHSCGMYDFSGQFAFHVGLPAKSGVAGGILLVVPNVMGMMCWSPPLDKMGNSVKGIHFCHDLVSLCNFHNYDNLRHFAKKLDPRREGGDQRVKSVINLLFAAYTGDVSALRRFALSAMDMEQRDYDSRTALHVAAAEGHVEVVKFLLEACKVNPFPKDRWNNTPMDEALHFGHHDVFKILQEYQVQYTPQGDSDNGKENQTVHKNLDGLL
# T5 sequence (Q92804 whole entry): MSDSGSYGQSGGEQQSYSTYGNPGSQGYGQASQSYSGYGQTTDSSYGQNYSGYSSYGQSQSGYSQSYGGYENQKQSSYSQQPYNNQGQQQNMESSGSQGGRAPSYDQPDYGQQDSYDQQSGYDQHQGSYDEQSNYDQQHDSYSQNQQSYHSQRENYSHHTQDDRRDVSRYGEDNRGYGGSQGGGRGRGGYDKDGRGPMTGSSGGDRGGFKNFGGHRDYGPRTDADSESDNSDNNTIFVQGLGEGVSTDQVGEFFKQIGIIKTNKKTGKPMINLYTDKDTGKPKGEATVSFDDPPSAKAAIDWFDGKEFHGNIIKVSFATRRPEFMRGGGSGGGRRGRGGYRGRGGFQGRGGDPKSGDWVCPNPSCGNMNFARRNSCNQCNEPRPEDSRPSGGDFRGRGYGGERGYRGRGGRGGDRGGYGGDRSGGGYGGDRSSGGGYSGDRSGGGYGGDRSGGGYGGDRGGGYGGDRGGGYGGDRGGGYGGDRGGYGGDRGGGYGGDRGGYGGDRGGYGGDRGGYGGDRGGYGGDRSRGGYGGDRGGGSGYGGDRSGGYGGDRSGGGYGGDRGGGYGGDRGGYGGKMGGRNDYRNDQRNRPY
# T16 sequence (O00571 whole entry): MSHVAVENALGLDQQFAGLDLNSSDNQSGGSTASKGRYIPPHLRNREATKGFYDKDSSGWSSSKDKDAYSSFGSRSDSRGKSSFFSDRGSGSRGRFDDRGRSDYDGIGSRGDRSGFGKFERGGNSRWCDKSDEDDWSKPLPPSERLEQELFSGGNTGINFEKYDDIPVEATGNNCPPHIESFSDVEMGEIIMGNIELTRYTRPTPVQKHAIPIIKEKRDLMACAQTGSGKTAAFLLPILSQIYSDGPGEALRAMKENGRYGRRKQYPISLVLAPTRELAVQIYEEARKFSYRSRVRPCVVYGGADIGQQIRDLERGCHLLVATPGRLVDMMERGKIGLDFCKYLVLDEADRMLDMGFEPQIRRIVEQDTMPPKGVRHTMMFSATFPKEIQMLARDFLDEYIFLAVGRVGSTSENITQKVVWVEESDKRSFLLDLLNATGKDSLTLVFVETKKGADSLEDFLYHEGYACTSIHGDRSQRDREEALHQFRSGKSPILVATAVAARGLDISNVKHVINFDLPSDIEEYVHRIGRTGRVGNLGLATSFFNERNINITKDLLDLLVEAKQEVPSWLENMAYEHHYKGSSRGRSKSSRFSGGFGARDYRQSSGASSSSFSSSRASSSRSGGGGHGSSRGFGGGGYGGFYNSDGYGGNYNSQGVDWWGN
# T8 sequence (P46940 whole entry): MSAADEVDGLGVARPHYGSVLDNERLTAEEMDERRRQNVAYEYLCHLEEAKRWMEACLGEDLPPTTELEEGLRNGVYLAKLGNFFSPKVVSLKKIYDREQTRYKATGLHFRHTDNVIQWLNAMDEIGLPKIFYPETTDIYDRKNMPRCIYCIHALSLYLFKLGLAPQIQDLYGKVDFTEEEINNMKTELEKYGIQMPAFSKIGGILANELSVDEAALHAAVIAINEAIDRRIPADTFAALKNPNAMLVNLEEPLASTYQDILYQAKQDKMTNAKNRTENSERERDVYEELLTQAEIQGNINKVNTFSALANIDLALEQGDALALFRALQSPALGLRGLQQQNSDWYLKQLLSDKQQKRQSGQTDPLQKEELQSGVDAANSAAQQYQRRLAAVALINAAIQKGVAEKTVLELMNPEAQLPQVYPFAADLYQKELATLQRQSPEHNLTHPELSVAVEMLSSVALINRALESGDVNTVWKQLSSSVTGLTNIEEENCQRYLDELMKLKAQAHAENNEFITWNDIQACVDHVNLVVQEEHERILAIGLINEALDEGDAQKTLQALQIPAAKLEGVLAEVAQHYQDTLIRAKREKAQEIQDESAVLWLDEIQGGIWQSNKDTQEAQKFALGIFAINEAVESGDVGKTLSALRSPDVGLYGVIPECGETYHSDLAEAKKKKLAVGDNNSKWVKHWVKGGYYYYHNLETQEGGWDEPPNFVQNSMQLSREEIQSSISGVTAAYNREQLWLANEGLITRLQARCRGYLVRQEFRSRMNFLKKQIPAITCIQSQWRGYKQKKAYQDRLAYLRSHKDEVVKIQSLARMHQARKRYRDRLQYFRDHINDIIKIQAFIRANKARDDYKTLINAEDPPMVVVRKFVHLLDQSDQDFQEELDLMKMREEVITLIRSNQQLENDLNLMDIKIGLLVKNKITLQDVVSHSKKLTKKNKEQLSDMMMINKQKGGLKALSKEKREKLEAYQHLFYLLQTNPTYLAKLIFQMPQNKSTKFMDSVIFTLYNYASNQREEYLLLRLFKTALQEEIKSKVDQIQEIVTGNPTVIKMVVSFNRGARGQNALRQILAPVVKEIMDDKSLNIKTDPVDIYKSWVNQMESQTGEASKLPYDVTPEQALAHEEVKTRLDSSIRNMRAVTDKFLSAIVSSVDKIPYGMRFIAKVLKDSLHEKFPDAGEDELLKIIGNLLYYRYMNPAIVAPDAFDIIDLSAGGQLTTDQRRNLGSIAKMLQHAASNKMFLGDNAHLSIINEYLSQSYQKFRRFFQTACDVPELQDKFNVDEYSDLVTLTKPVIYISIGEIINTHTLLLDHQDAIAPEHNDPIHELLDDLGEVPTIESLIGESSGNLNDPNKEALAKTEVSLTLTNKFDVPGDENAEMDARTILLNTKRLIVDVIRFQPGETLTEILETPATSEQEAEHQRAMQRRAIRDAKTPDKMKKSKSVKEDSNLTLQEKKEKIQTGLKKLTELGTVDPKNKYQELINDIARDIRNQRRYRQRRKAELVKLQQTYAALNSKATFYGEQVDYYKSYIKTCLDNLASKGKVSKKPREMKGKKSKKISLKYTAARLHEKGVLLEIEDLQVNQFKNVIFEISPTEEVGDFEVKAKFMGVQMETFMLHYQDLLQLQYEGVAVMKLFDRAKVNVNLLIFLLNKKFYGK
# T1 sequence (P35269 whole entry): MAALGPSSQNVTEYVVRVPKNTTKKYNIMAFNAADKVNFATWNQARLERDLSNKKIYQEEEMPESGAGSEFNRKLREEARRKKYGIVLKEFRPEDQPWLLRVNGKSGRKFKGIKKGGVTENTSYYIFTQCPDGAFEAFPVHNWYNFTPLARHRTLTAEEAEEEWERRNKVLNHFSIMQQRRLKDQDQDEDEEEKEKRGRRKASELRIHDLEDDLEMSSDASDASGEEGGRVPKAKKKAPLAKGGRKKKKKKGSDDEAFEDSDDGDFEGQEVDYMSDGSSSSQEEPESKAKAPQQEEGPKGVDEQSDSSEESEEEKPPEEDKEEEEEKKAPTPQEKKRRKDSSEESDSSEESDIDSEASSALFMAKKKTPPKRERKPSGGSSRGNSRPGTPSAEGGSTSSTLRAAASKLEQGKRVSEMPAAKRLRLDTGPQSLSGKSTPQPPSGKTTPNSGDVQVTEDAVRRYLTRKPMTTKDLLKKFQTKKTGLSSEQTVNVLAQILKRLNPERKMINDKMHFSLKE
# T4 sequence (Q9NVE7 whole entry): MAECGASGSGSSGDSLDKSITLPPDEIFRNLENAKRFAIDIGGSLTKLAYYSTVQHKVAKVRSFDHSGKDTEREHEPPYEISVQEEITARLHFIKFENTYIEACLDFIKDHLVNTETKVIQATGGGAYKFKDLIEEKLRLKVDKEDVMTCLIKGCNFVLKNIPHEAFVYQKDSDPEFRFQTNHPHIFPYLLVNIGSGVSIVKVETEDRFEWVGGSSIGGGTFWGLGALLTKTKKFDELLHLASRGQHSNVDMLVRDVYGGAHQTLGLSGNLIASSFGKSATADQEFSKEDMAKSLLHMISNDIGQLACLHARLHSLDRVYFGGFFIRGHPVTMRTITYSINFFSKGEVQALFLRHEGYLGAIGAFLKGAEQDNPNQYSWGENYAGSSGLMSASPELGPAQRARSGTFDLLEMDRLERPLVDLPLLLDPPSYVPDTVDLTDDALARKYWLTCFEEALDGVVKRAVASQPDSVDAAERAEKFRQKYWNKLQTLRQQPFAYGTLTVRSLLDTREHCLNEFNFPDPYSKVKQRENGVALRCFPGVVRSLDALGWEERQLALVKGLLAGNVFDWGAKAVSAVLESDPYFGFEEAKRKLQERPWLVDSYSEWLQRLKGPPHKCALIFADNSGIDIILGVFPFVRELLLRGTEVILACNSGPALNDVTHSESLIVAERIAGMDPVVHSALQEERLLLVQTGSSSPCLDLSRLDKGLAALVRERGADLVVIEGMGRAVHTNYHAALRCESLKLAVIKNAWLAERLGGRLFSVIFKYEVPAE
# T6 sequence (Q9NV35 whole entry): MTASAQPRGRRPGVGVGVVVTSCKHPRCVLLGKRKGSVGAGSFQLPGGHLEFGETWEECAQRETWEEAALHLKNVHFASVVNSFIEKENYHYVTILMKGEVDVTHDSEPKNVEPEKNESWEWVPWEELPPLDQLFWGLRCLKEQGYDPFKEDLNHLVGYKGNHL
smiles,measurement,setting,value
"O=C(c1ccc(S(=O)(=O)n2cncn2)cc1)N1CCC(c2ccccc2)CC1 [HHS-0701, (4-((1H-1,2,4-triazol-1-yl)sulfonyl)phenyl)(4-phenylpiperidin-1-yl)methanone]",liganded tyrosine site 124,P35269,HHS0701.Y (tyrosine sites that showed >80% reductions (SR >5) in probe labeling in cells treated with compounds (liganded sites))
"O=C(NCC1CC1)c1ccc(S(=O)(=O)n2cncn2)cc1 [HHS-0201, 4-((1H-1,2,4-triazol-1-yl)sulfonyl)-N-(cyclopropylmethyl)benzamide]",liganded tyrosine site 578,O43390,HHS0201.Y|HHS0301.Y|HHS0401.Y|HHS0701.Y (tyrosine sites that showed >80% reductions (SR >5) in probe labeling in cells treated with compounds (liganded sites))
same,liganded tyrosine site 169,Q9HCE5,HHS0201.Y|HHS0301.Y (tyrosine sites that showed >80% reductions (SR >5) in probe labeling in cells treated with compounds (liganded sites))
same,liganded tyrosine site 338,Q9NVE7,HHS0201.Y|HHS0401.Y (tyrosine sites that showed >80% reductions (SR >5) in probe labeling in cells treated with compounds (liganded sites))
same,liganded tyrosine site 170,Q92804,HHS0201.Y|HHS0301.Y (tyrosine sites that showed >80% reductions (SR >5) in probe labeling in cells treated with compounds (liganded sites))
same,liganded tyrosine site 92,Q9NV35,HHS0201.Y (tyrosine sites that showed >80% reductions (SR >5) in probe labeling in cells treated with compounds (liganded sites))
same,liganded tyrosine site 344,Q9Y2W1,HHS0201.Y|HHS0301.Y (tyrosine sites that showed >80% reductions (SR >5) in probe labeling in cells treated with compounds (liganded sites))
same,liganded tyrosine site 977,P46940,HHS0201.Y|HHS0301.Y|HHS0701.Y (tyrosine sites that showed >80% reductions (SR >5) in probe labeling in cells treated with compounds (liganded sites))
"O=C(NC1CC1)c1ccc(S(=O)(=O)n2cncn2)cc1 [HHS-0101, 4-((1H-1,2,4-triazol-1-yl)sulfonyl)-N-cyclopropylbenzamide]",liganded tyrosine site 323,Q86VS8,HHS0101.Y|HHS0401.Y|HHS0701.Y (tyrosine sites that showed >80% reductions (SR >5) in probe labeling in cells treated with compounds (liganded sites))
same,liganded tyrosine site 45,O43776,HHS0101.Y (tyrosine sites that showed >80% reductions (SR >5) in probe labeling in cells treated with compounds (liganded sites))
same,liganded tyrosine site 145,O94925,HHS0101.Y (tyrosine sites that showed >80% reductions (SR >5) in probe labeling in cells treated with compounds (liganded sites))
same,liganded tyrosine site 304,O94925,HHS0101.Y (tyrosine sites that showed >80% reductions (SR >5) in probe labeling in cells treated with compounds (liganded sites))
same,liganded tyrosine site 50,P68371,HHS0101.Y (tyrosine sites that showed >80% reductions (SR >5) in probe labeling in cells treated with compounds (liganded sites))
same,liganded tyrosine site 232,Q969T9,HHS0101.Y|HHS0701.Y (tyrosine sites that showed >80% reductions (SR >5) in probe labeling in cells treated with compounds (liganded sites))
"O=C(NC1CCCCC1)c1ccc(S(=O)(=O)n2cncn2)cc1 [HHS-0301, 4-((1H-1,2,4-triazol-1-yl)sulfonyl)-N-cyclohexylbenzamide]",liganded tyrosine site 344,Q92889,HHS0301.Y|HHS0401.Y (tyrosine sites that showed >80% reductions (SR >5) in probe labeling in cells treated with compounds (liganded sites))
"O=C(NCc1ccccc1)c1ccc(S(=O)(=O)n2cncn2)cc1 [HHS-0401, 4-((1H-1,2,4-triazol-1-yl)sulfonyl)-N-benzylbenzamide]",liganded tyrosine site 164,P06132,HHS0401.Y (tyrosine sites that showed >80% reductions (SR >5) in probe labeling in cells treated with compounds (liganded sites))
same,liganded tyrosine site 266,O00571,HHS0401.Y (tyrosine sites that showed >80% reductions (SR >5) in probe labeling in cells treated with compounds (liganded sites))
same,liganded tyrosine site 262,Q14914,HHS0401.Y (tyrosine sites that showed >80% reductions (SR >5) in probe labeling in cells treated with compounds (liganded sites))
same,liganded tyrosine site 402,P55084,HHS0401.Y (tyrosine sites that showed >80% reductions (SR >5) in probe labeling in cells treated with compounds (liganded sites))
